From patent publication US8546579B2, “Bicycloheteroaryl compounds as P2X7 modulators and uses thereof” (Evotec (US) Inc., priority 2006, dated 2013)
Blank lines part the entries; values can stand above or below the molecule they belong to.

Biological target: T1, P2X7 receptor (Homo sapiens, UniProt Q99572)
T1 construct: host or cells: THP-1 cells differentiated with LPS and IFN-γ
T1 sequence (Q99572 1-595): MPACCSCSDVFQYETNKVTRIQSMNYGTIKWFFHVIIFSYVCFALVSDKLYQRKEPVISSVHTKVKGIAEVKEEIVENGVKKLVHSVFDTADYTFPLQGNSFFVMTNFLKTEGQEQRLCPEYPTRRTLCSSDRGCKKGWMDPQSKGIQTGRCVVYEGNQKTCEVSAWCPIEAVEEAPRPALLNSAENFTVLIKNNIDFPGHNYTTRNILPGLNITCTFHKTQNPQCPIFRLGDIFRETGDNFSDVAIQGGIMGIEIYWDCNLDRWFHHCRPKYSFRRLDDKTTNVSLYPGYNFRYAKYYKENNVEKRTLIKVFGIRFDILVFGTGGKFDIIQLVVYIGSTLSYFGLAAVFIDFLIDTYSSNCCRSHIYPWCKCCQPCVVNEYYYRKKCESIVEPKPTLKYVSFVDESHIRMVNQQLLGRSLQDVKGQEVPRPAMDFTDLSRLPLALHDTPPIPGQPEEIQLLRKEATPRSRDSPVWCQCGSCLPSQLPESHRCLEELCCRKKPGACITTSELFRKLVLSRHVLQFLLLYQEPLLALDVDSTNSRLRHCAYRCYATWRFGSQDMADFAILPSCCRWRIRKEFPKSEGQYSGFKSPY
Assay: IL-1β release assay in differentiated THP-1 cells stimulated with BzATP (Example 9)
Format: cell-based
Set-up: inhibition: dose or concentration left out as unconfirmed
Conditions: for inhibition at 0.3 µM: 0.3 μM compound, symbols + to ++++, read-out: IL-1β % Inhib. @ 0.3 μM; for inhibition at 0.3 µM / inhibition at 0.1 µM: differentiated THP-1 cells, BzATP 250 uM; for inhibition at 0.1 µM: 0.1 μM compound, symbols * to ****, read-out: IL-1β % Inhib. (asterisk symbols: at 0.1 μM); for IC50: THP-1 cells, BzATP-stimulated IL-1β release, four parameter logistic fit; for inhibition: THP-1, read-out: IL-1β % Inhib.
Outline: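 IC50 derived by four-parameter logistic fit of percent inhibition of IL-1β release, measured by ELISA after 45 min stimulation with 250 uM BzATP. Cells: THP-1 differentiated 16 h with 100 ng/mL LPS plus IFN-γ, LPS-primed 2 h, compound added 30 min beforehand.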

Compound: O=C(Nc1cccc2c(=O)n(Cc3cccnc3)ccc12)c1ccccc1Cl [Compound 1344]
inhibition at 0.3 µM: 26 to 50%

Compound: Cc1cccc(C(=O)Nc2cccc3c(=O)n(Cc4cccnc4)ccc23)c1C [Compound 1345]
inhibition at 0.3 µM: 0 to 25%

Compound: COc1cc(OC)cc(C(=O)Nc2cccc3c(=O)n(Cc4cccnc4)ccc23)c1 [Compound 1346]
inhibition at 0.1 µM: 51 to 75%

Compound: CC(C(=O)Nc1cccc2c(=O)n(Cc3cccnc3)ccc12)c1ccccc1 (centres unmarked) [Compound 1347]
inhibition at 0.1 µM: 26 to 50%

Compound: O=C(Cc1cccc2ccccc12)Nc1cccc2c(=O)n(Cc3cccnc3)ccc12 [Compound 1350]
inhibition at 0.1 µM: 0 to 25%

Compound: COc1ccccc1CC(=O)Nc1cccc2c(=O)n(Cc3cccnc3)ccc12 [Compound 1351]
inhibition at 0.3 µM: 0 to 25%

Compound: COc1ccc(OC)c(CC(=O)Nc2cccc3c(=O)n(Cc4cccnc4)ccc23)c1 [Compound 1352]
inhibition at 0.3 µM: 0 to 25%

Compound: COc1ccc(CC(=O)Nc2cccc3c(=O)n(Cc4cccnc4)ccc23)cc1OC [Compound 1354]
inhibition at 0.3 µM: 0 to 25%

Compound: COc1ccc(CC(=O)Nc2cccc3c(=O)n(Cc4cccnc4)ccc23)cc1 [Compound 1355]
inhibition at 0.3 µM: 0 to 25%

Compound: Cc1ccc(CC(=O)Nc2cccc3c(=O)n(Cc4cccnc4)ccc23)cc1 [Compound 1356]
inhibition at 0.3 µM: 0 to 25%

Compound: O=C(Nc1cccc2c(=O)n(Cc3cccnc3)ccc12)c1cc2ccccc2o1 [Compound 1358]
inhibition at 0.3 µM: 0 to 25%

Compound: O=C(Cc1ccc2c(c1)OCO2)Nc1cccc2c(=O)n(Cc3cccnc3)ccc12 [Compound 1359]
inhibition at 0.3 µM: 26 to 50%

Compound: COc1cc(CC(=O)Nc2cccc3c(=O)n(Cc4cccnc4)ccc23)cc(OC)c1 [Compound 1360]
inhibition at 0.3 µM: 26 to 50%

Compound: COc1c(C)cc(C(=O)Nc2cccc3c(=O)n(Cc4cccnc4)ccc23)cc1C [Compound 1361]
inhibition at 0.3 µM: 0 to 25%

Compound: O=C(Nc1cccc2c(=O)n(Cc3cccnc3)ccc12)[C@@]12C[C@@H]3C[C@@H](C[C@@H]1C3)C2 [Compound 1362]
inhibition at 0.3 µM: 0 to 25%

Compound: O=C(Nc1cccc2c(=O)n(Cc3cccnc3)ccc12)c1cccc2c1OCCO2 [Compound 1363]
inhibition at 0.3 µM: 0 to 25%

Compound: O=C(Nc1cccc2c(=O)n(Cc3cccnc3)ccc12)c1ccc2c(c1)OCCCO2 [Compound 1364]
inhibition at 0.3 µM: 0 to 25%

Compound: COc1ccc(CC(=O)Nc2cccc3c(=O)n(Cc4cccnc4)ccc23)c(OC)c1 [Compound 1365]
inhibition at 0.3 µM: 0 to 25%

Compound: Cc1ccc(Cl)cc1C(=O)Nc1cccc2c(=O)n(Cc3cccnc3)ccc12 [Compound 1368]
inhibition at 0.3 µM: 0 to 25%

Compound: Cc1cccc(C(=O)Nc2cccc3c(=O)n(Cc4cccnc4)ccc23)c1Cl [Compound 1370]
inhibition at 0.3 µM: 0 to 25%

Compound: COc1ccc(C(=O)Nc2cccc3c(=O)n(Cc4cccnc4)ccc23)cc1C [Compound 1371]
inhibition at 0.3 µM: 0 to 25%

Compound: CC(C)Cc1ccc(C(=O)Nc2cccc3c(=O)n(Cc4cccnc4)ccc23)cc1 [Compound 1372]
inhibition at 0.3 µM: 0 to 25%

Compound: O=C(CC1CCCCCC1)Nc1cccc2c(=O)n(CC3CCOCC3)ccc12 [Compound 1373, 2-Cycloheptyl-N-[1-oxo-2-(tetrahydro-pyran-4-ylmethyl)-1,2-dihydro-isoquinolin-5-yl]-acetamide]
inhibition at 0.3 µM: ≥ 76%
IC50: 72.1 nM

Compound: CC(=O)OCCn1ccc2c(NC(=O)Cc3ccc(Cl)c(C(F)(F)F)c3)cccc2c1=O [Compound 1380, Acetic acid 2-{5-[2-(4-chloro-3-trifluoromethyl-phenyl)-acetylamino]-1-oxo-1H-isoquinolin-2-yl}-ethyl ester]
inhibition at 0.3 µM: ≥ 76%
IC50: 5.33 nM

Compound: CN(C)CCn1ccc2c(NC(=O)CC3(O)CCCCCC3)cccc2c1=O [Compound 1388]
inhibition at 0.3 µM: 0 to 25%
IC50: > 1000 nM

Compound: CN(C)CCn1ccc2c(NC(=O)CC3CCCCCC3)cccc2c1=O [Compound 1389]
inhibition at 0.3 µM: 26 to 50%
IC50: 311 nM

Compound: CN(C)CCn1ccc2c(NC(=O)CC3(O)CC(C)(C)CC(C)(C)C3)cccc2c1=O [Compound 1390]
inhibition at 0.3 µM: ≥ 76%
IC50: 79.3 nM

Compound: CC(C(=O)Nc1cccc2c(=O)n(CCN(C)C)ccc12)c1ccc(Cl)cc1 (centres unmarked) [Compound 1391]
inhibition at 0.3 µM: ≥ 76%
IC50: 45.7 nM

Compound: COCCn1ccc2c(NC(=O)CC3(O)CC(C)(C)CC(C)(C)C3)cccc2c1=O [Compound 1393]
inhibition at 0.3 µM: ≥ 76%
IC50: 77.8 nM

Compound: COc1ccc(C(=O)Nc2cccc3c(=O)n(CC4CCOCC4)ccc23)c(C)c1 [Compound 1394]
inhibition at 0.1 µM: 0 to 25%

Compound: C[C@H]1CC[C@H](C(=O)Nc2cccc3c(=O)n(CC4CCOCC4)ccc23)CC1 [Compound 1395]
inhibition at 0.1 µM: 0 to 25%

More lines, now with the values ahead:

inhibition at 0.3 µM: 0 to 25%
Compound: COCCn1ccc2c(NC(=O)CCc3ccc(C)cc3C)cccc2c1=O [Compound 1341]

inhibition at 0.3 µM: 0 to 25%
Compound: COCCn1ccc2c(NC(=O)CCc3cccc(Cl)c3)cccc2c1=O [Compound 1342]

inhibition at 0.3 µM: 0 to 25%
Compound: COCCn1ccc2c(NC(=O)c3ccc(CC(C)C)cc3)cccc2c1=O [Compound 1343]

inhibition at 0.1 µM: 0 to 25%
Compound: COc1ccccc1CCC(=O)Nc1cccc2c(=O)n(Cc3cccnc3)ccc12 [Compound 1348]

inhibition at 0.1 µM: 0 to 25%
Compound: COc1ccc(CCC(=O)Nc2cccc3c(=O)n(Cc4cccnc4)ccc23)cc1 [Compound 1349]

inhibition at 0.3 µM: 0 to 25%
Compound: COc1cccc(CC(=O)Nc2cccc3c(=O)n(Cc4cccnc4)ccc23)c1 [Compound 1353]

inhibition at 0.3 µM: 0 to 25%
Compound: O=C(CCCc1ccccc1)Nc1cccc2c(=O)n(Cc3cccnc3)ccc12 [Compound 1357]

inhibition at 0.3 µM: 26 to 50%
IC50: 410 nM
Compound: CCOc1ccccc1CC(=O)Nc1cccc2c(=O)n(Cc3cccnc3)ccc12 [Compound 1366]

inhibition at 0.3 µM: 0 to 25%
Compound: COc1ccc(CC(=O)Nc2cccc3c(=O)n(Cc4cccnc4)ccc23)cc1C [Compound 1367]

inhibition at 0.3 µM: 0 to 25%
Compound: Cc1cccc(CCC(=O)Nc2cccc3c(=O)n(Cc4cccnc4)ccc23)c1 [Compound 1369]

inhibition at 0.3 µM: ≥ 76%
IC50: 40.6 nM
Compound: CC(=O)OCCn1ccc2c(NC(=O)CCc3cc(C(F)(F)F)ccc3C(F)(F)F)cccc2c1=O [Compound 1374]

inhibition at 0.3 µM: ≥ 76%
IC50: 86.7 nM
Compound: CC(=O)OCCn1ccc2c(NC(=O)CC3CCCCCC3)cccc2c1=O [Compound 1375]

inhibition at 0.3 µM: 0 to 25%
IC50: 731 nM
Compound: CC(=O)OCCn1ccc2c(NC(=O)CCc3cc(C(F)(F)F)cc(C(F)(F)F)c3)cccc2c1=O [Compound 1376]

inhibition at 0.3 µM: 0 to 25%
IC50: > 1000 nM
Compound: CC(=O)OCCn1ccc2c(NC(=O)Cc3ccc4c(c3)OCCO4)cccc2c1=O [Compound 1377]

inhibition at 0.3 µM: 51 to 75%
IC50: 121 nM
Compound: CC(=O)OCCn1ccc2c(NC(=O)Cc3cc(C(F)(F)F)cc(C(F)(F)F)c3)cccc2c1=O [Compound 1378]

inhibition at 0.3 µM: ≥ 76%
IC50: 41.5 nM
Compound: CC(=O)OCCn1ccc2c(NC(=O)CC3CCCCC3)cccc2c1=O [Compound 1379]

inhibition at 0.3 µM: ≥ 76%
IC50: 34.1 nM
Compound: CC(=O)OCCn1ccc2c(NC(=O)Cc3ccc(Cl)cc3Cl)cccc2c1=O [Compound 1381]

inhibition at 0.3 µM: 26 to 50%
IC50: 602 nM
Compound: CC(=O)OCCn1ccc2c(NC(=O)Cc3cc(C(F)(F)F)ccc3C(F)(F)F)cccc2c1=O [Compound 1382]

inhibition at 0.3 µM: 0 to 25%
IC50: > 1000 nM
Compound: CC(=O)OCCn1ccc2c(NC(=O)CCc3ccc(S(C)(=O)=O)cc3)cccc2c1=O [Compound 1383]

inhibition at 0.3 µM: 0 to 25%
IC50: > 1000 nM
Compound: CC(=O)OCCn1ccc2c(NC(=O)Cc3ccc(S(C)(=O)=O)cc3)cccc2c1=O [Compound 1384]

inhibition at 0.3 µM: ≥ 76%
IC50: 152 nM
Compound: CN(C)CCn1ccc2c(NC(=O)Cc3ccc(Cl)c(C(F)(F)F)c3)cccc2c1=O [Compound 1385]

inhibition at 0.3 µM: 51 to 75%
IC50: 238 nM
Compound: CN(C)CCn1ccc2c(NC(=O)Cc3ccc(Cl)c(Cl)c3)cccc2c1=O [Compound 1386]

inhibition at 0.3 µM: 51 to 75%
IC50: 146 nM
Compound: CN(C)CCn1ccc2c(NC(=O)Cc3ccc(Cl)cc3Cl)cccc2c1=O [Compound 1387]

inhibition at 0.3 µM: 51 to 75%
IC50: 123 nM
Compound: COCCn1ccc2c(NC(=O)Cc3ccc(Cl)c(Cl)c3)cccc2c1=O [Compound 1392]

inhibition at 0.1 µM: 0 to 25%
Compound: Cc1ccccc1CCC(=O)Nc1cccc2c(=O)n(CC3CCOCC3)ccc12 [Compound 1396]

inhibition at 0.1 µM: 0 to 25%
Compound: CCOc1ccc(C(=O)Nc2cccc3c(=O)n(CCN(C)C)ccc23)c(O)c1 [Compound 1397]

inhibition: 0 to 25%
Compound: COc1ccc(C(=O)Nc2cccc3c(=O)n(CCN(C)C)ccc23)c(C)c1 [Compound 1398]

inhibition: 0 to 25%
Compound: Cc1ccccc1CCC(=O)Nc1cccc2c(=O)n(CCN(C)C)ccc12 [Compound 1399]

inhibition: 26 to 50%
Compound: COc1cccc(CCC(=O)Nc2cccc3c(=O)n(CCN(C)C)ccc23)c1 [Compound 1400]

inhibition: 0 to 25%
Compound: Cc1ccc(C)c(CC(=O)Nc2cccc3c(=O)n(CCN(C)C)ccc23)c1 [Compound 1401]
